From PMC10126473 (Frontiers in Pharmacology, 2023)

Assay: Mouse PK and tissue distribution study (non-compartmental analysis)
Settings: male, C57BL/6, mouse, in vivo; for Cmax: Cmax Obs; for Tmax: Tmax Obs
Experimental: The in-life study (Animal Study Protocol Number: NIH ORS-51) was conducted at the NIH Animal Facility by the Division of Veterinary Resources (DVR, Bethesda, MD). In this study, 25–35 g male C57BL/6 mice (Charles River Laboratories, Frederick, MD) were used. For the IV groups, 66 mice (33 mice per dosing group, 3 mice per timepoint) were used for a single bolus IV dose of 3 or 10 mg/kg of PDN via tail vein injection. […] The IV and PO doses were selected to obtain a complete concentration profile in plasma and tissues, based on a preliminary study. Animals were not fasted in this study. […] All dosing solutions were freshly prepared on the day of dosing. At designated time points, blood samples were collected, and mice were euthanized with CO2 in accordance with NIH ARAC Guidelines after blood collection. The death was ensured by cervical dislocation or transthoracic puncture. Lung, liver, adipose, brain, heart, small intestine, kidney, skeletal muscle, and spleen samples were obtained from mice. […] Tissue samples were rinsed with cold saline, dried on filtrate paper, weighed, and snap frozen by placing into dry ice after collection. All samples were stored at −80°C until the analysis. All blood samples were collected in K2EDTA tubes and centrifuged at 3000 g for 10 min at 4°C to obtain plasma. Plasma samples were transferred to tubes preloaded with NaF (final concentration at 5 mM in 200 µL plasma) and stored at −80°C until analysis.
For fat tissue, an additional 3-fold volume of acetonitrile was added to the water homogenate and was vortexed in a shaker for another 30 min.
A 10 μ aliquot of samples, blank controls (blank plasma or tissue homogenates), quality controls (QC), and standards were added into 200 μ acetonitrile solution with 100 ng/mL tolbutamide (internal standard, IS). All samples were then thoroughly shaken for 5 min to precipitate proteins. The samples were centrifuged at 3000 rpm and 4°C for 30 min. The supernatant was injected for UPLC-MS/MS analysis.
The mobile phase consisted of 0.1% formic acid in water (A) and 0.1% formic acid in acetonitrile (B), the flow rate was 600 μL/min. […] All analyses were carried out using a Waters Acquity I-Class UPLC interfaced with a Waters Xevo TQ-S mass spectrometer. The mass spectrometer multiple reaction monitoring (MRM) experiment was operated with an ESI source at negative mode with spray voltage of 1 kV, and temperature of 600°C. Both Q1 and Q3 were set at unit resolution. […] The correlation coefficients of the calibration curves were all greater than 0.99. […] The linear range, precision and accuracy of QCs in various tissues and plasma are shown in Supplementary Table S1 and Supplementary Table S2.
The area under the concentration vs. time curve (AUC) was calculated using the linear trapezoidal method. The terminal rate constant (λ) was obtained from the slope of at least three data points of the apparent terminal phase of the log linear concentration vs. time curve. AUC0–∞ was estimated as the sum of the AUC0–t (where t is the time of the last measurable concentration) and Ct/λ. […] Bioavailability (F) was calculated using ratios of dose-normalized AUC of PO and IV administration.

[1] = po, 10 mg/kg, mice, PO 10 mg/kg PDN, adipose
[2] = po, 10 mg/kg, mice, PO 10 mg/kg PDN, brain
[3] = po, 10 mg/kg, mice, PO 10 mg/kg PDN, heart
[4] = po, 10 mg/kg, mice, PO 10 mg/kg PDN, intestine

SMILES: O=C(Nc1ccc([N+](=O)[O-])cc1Cl)c1cc(Cl)ccc1OC(=O)N1CCNCC1 [PDN]
- Kp: 8 to 44
- AUC(0-inf) (iv, 3 mg/kg): 1190 ng·h/mL
- clearance (iv, 3 mg/kg, CLp Obs, mice, IV 3 mg/kg PDN, plasma): 1.05 mL/min
- Vd (iv, 3 mg/kg, Vdss Obs, mice, IV 3 mg/kg PDN, plasma): 0.28 L
- half-life (iv, 3 mg/kg, t1/2 Obs, mice, IV 3 mg/kg PDN, adipose): 2.78 h
- half-life (iv, 3 mg/kg, t1/2 Obs, mice, IV 3 mg/kg PDN, brain): 2.23 h
- half-life (iv, 3 mg/kg, t1/2 Obs, mice, IV 3 mg/kg PDN, heart): 1.71 h
- half-life (iv, 3 mg/kg, t1/2 Obs, mice, IV 3 mg/kg PDN, intestine): 2.69 h
- half-life (iv, 3 mg/kg, t1/2 Obs, mice, IV 3 mg/kg PDN, kidney): 3.1 h
- half-life (iv, 3 mg/kg, t1/2 Obs, mice, IV 3 mg/kg PDN, lung): 3.09 h
- half-life (iv, 3 mg/kg, t1/2 Obs, mice, IV 3 mg/kg PDN, muscle): 1.91 h
- half-life (iv, 3 mg/kg, t1/2 Obs, mice, IV 3 mg/kg PDN, plasma): 3.07 h
- half-life (iv, 3 mg/kg, t1/2 Obs, mice, IV 3 mg/kg PDN, spleen): 3.44 h
- AUC(0-inf) (iv, 10 mg/kg): 4100 ng·h/mL
- clearance (iv, 10 mg/kg, CLp Obs, mice, IV 10 mg/kg PDN, plasma): 1.02 mL/min
- Vd (iv, 10 mg/kg, Vdss Obs, mice, IV 10 mg/kg PDN, plasma): 0.31 L
- half-life (iv, 10 mg/kg, t1/2 Obs, mice, IV 10 mg/kg PDN, brain): 3.39 h
- half-life (iv, 10 mg/kg, t1/2 Obs, mice, IV 10 mg/kg PDN, heart): 2.86 h
- half-life (iv, 10 mg/kg, t1/2 Obs, mice, IV 10 mg/kg PDN, intestine): 3.78 h
- half-life (iv, 10 mg/kg, t1/2 Obs, mice, IV 10 mg/kg PDN, kidney): 4.78 h
- half-life (iv, 10 mg/kg, t1/2 Obs, mice, IV 10 mg/kg PDN, liver): 3.6 h
- half-life (iv, 10 mg/kg, t1/2 Obs, mice, IV 10 mg/kg PDN, lung): 3.51 h
- half-life (iv, 10 mg/kg, t1/2 Obs, mice, IV 10 mg/kg PDN, muscle): 4.65 h
- half-life (iv, 10 mg/kg, t1/2 Obs, mice, IV 10 mg/kg PDN, plasma): 3.52 h
- half-life (iv, 10 mg/kg, t1/2 Obs, mice, IV 10 mg/kg PDN, spleen): 3.24 h
- half-life (iv, 10 mg/kg, t1/2 in all other tissues, mice, IV 3 and 10 mg/kg PDN): 1.7 to 4.8 h
- half-life (iv, 10 mg/kg, terminal t1/2 in plasma, mice, IV 3 and 10 mg/kg PDN): 3.1 to 3.5 h
- clearance (iv, 10 mg/kg, total plasma clearance (CLp), mice, IV 3 and 10 mg/kg PDN): 1.02 to 1.05 mL/min
- Vd (iv, 10 mg/kg, volume of distribution at steady-state (Vdss), mice, IV 3 and 10 mg/kg PDN): 0.28 to 0.31 L
- AUC(0-inf) (po, 10 mg/kg): 3520 ng·h/mL
- CL/F (po, 10 mg/kg): 1.18 mL/min
- Vd/F (po, 10 mg/kg): 0.33 L
- Cmax [1]: 547 ng/g
- Cmax [2]: 715 ng/g
- Cmax [3]: 3040 ng/g
- Cmax [4]: 15400 ng/g
- Cmax (po, 10 mg/kg, mice, PO 10 mg/kg PDN, kidney): 5860 ng/g
- Cmax (po, 10 mg/kg, mice, PO 10 mg/kg PDN, liver): 240 ng/g
- Cmax (po, 10 mg/kg, mice, PO 10 mg/kg PDN, lung): 22600 ng/g
- Cmax (po, 10 mg/kg, mice, PO 10 mg/kg PDN, muscle): 1120 ng/g
- Cmax (po, 10 mg/kg, mice, PO 10 mg/kg PDN, plasma): 606 ng/mL
- Cmax (po, 10 mg/kg, mice, PO 10 mg/kg PDN, spleen): 8080 ng/g
- bioavailability (po, 10 mg/kg, F (bioavailability) Obs, mice, PO 10 mg/kg PDN): 85.6%
- Tmax [1]: 1.5 h
- Tmax [2]: 1.5 h
- Tmax [3]: 1.5 h
- Tmax [4]: 0.167 h
